Legend:
[1] = test system: cellulase; assay: Cellulase activity of RCF pulp samples, Enzchek Cellulase substrate; format: biochemical
Method: Cellulase activity expressed here as “mU/ml” may be obtained using Enzchek Cellulase substrate (Life Technologies, part of Thermo Fisher Scientific), using the manufacturer's instructions and measurement protocol where sodium acetate buffer is adjusted to pH 6.0 and the samples are diluted 1/10 to minimize inhibition and quenching by fibers.
For example, in soil research microbial cellulolytic potential can be tested with agar plate cultivation, but there are also commercially available substrates for measurement of cellulase activity directly from aqueous samples (cellulase production organism cultivation broths/extracts).
According to the supplier, the assay limit of detection is ~110% of the signal for blank (buffer instead of sample). In addition, standard curve was measured as recommended with Trichoderma mold cellulase (at recommended pH 5.0), but in addition also with Bacillus amyloliquefaciens cellulase (Megazyme; at recommended pH 6.0). Both gave near-linear standard curve with good sensitivity.
(§1) Short-term and long-term effect of biocides on cellulase activity of process samples was tested with laboratory incubations of recycled fiber (RCF) pulp samples at 40° C.

[2] = test system: Aerobic bacteria; assay: Culturable aerobic bacterial count in pulp; format: cell-based
Method: as §1
(§2) 50 g liner board was re-pulped with process water from a mill using recycled fiber. The final consistency of the pulp was 1.0% and the liner was from a mill using ~50% unbleached kraft pulp and ~50% recycled fiber. This mill uses about 6 kg/ton wet-end starch in the production of the liner. The pulp suspension was divided into 12 bottles. Six of the bottles were put into an incubator with no other treatment. The other 6 bottles were first pasteurized (1 h, +80° C.) in order to inactivate any enzymes present. After that, the bottles were treated with a combination of a biocide (Mixture of DBNPA, bronopol and CMIT/MIT, 100 mg/l as active substance) and either zinc or zinc comprising compound (25 mg/l as Zn^2+). After this, all 12 bottles were kept at +40° C. with shaking for 3 days. At the beginning of the incubation, the pH of the pulp was 6.64, redox+160 mV and conductivity 5.46 mS/cm.
50 g liner board (from two different mills: 50% from a mill using ~50% unbleached kraft pulp and ~50% recycled fiber and 50% from a mill using 100% recycled fiber) was re-pulped with process water from a third mill using recycled fiber. The final consistency of the pulp was 1.0%. The pulp suspension was divided into 12 bottles and starch suspension (native potato starch) was added into each bottle, so that the concentration of added starch was 1.5 g/l. Six of the bottles (numbers 1-6) were put into an incubator with no other treatment. The other 6 bottles (numbers 7-12) were first pasteurized (1 h, +80° C.) in order to inactivate any enzymes present. After that, the bottles were treated with a biocide (50 mg/l monochloramine, as active chlorine). […] At the beginning of the incubation, the pH of the pulp was 6.0, redox −46 mV and conductivity 4.8 mS/cm.

[3] = test system: Anaerobic bacteria; assay: Anaerobic bacterial count in pulp; format: cell-based; settings: pasteurized 1 h +80° C., 50 mg/l monochloramine then 10 mg/l daily, 4 d at +40° C., n = 6
Method: as §2
After 3 d pH, ORP, and total and cellulolytic bacterial amounts were measured from each bottle.
50 g liner board (from two different mills: 50% from a mill using ~50% unbleached kraft pulp and ~50% recycled fiber and 50% from a mill using 100% recycled fiber) was re-pulped with process water from a third mill using recycled fiber. The final consistency of the pulp was 1.0%. […]
After 4 d pH, ORP, bacterial amounts and cellulase activity were measured from each bottle.

[4] = test system: ATP; assay: ATP measured from pulp bottles; format: cell-based; settings: after 2 d
Method: 50 g liner board (from two different mills: 50% from a mill using ~50% unbleached kraft pulp and ~50% recycled fiber and 50% from a mill using 100% recycled fiber) was re-pulped with process water from a third mill using recycled fiber. The final consistency of the pulp was 1.0%. The pulp suspension was divided into 12 bottles and starch suspension (native potato starch) was added into each bottle, so that the concentration of added starch was 1.5 g/l. Six of the bottles (numbers 1-6) were put into an incubator with no other treatment. The other 6 bottles (numbers 7-12) were first pasteurized (1 h, +80° C.) in order to inactivate any enzymes present. After that, the bottles were treated with a biocide (50 mg/l monochloramine, as active chlorine). After this, all 12 bottles were kept at +40° C. with shaking for 4 days. During the incubation, 10 mg/l monochloramine was added daily into the bottles 7-12). At the beginning of the incubation, the pH of the pulp was 6.0, redox −46 mV and conductivity 4.8 mS/cm.
After 2 d, ATP was measured from each bottle and was 1000-fold higher in non-treated than treated bottles (average 71 000 pg/ml, st.dev. 3800, vs. average 70, st.dev. 7 pg/ml, respectively).

[5] = RCF pulp, MCA Day 1 50 mg/l, Day 2 and 3 10 mg/l, Days 4-8 no addition
[6] = pasteurized 1 h +80° C., 50 mg/l monochloramine then 10 mg/l daily, 4 d at +40° C., n = 6

Q: What does the source list for `NCl` [MCA, monochloramine]?
A: cellulase activity in process sample ([1]; 5 d after the last biocide dosage, corresponding to 134% of the blank): ~ 0.2 mU/ml; Cellulase activity at 7 d, % compared to blank [1, 5]: 134%; Cellulase activity, Average [1, 6]: 0.44 mU/ml; reduction of total CFUs ([2]; 3-day experiment, daily dosages of MCA): 5 orders of magnitude; Aerobic bacteria, 3 d, cfu/ml ([2]; RCF pulp, MCA Day 1 50 mg/l, Day 2 and 3 10 mg/l): 6000 cfu/ml; Aerobic bacteria, 6 d, cfu/ml [2, 5]: 30 000 000 cfu/ml; Aerobic bacteria, Average [2, 6]: 8 700 cfu, ml; Anaerobic bacteria, Average [3]: 970 cfu/ml; ATP higher in non-treated than treated bottles [4]: 1000 fold; ATP, average ([4]; treated bottles, 50 mg/l monochloramine then 10 mg/l daily, +40° C.): 70 pg/mL
